Results published in article PMC6838683, “Discovery of Human Signaling Systems: Pairing Peptides to G Protein-Coupled Receptors” (Cell, 2019).
Read-outs that look alike come from different tables or passages of the source. Positions of bridges follow the written chain, without caps; N, C: chain ends. No end group written: not given here.

What was measured:
GPR15 [1] = molecular target: T1, GPR15 (Homo sapiens, UniProt P49685); assay: Real-time receptor internalization (TR-FRET), concentration-response; type: cell-based; settings: mean, SEM and n (3); for EC50: read-out: Internalization assays pEC50 (converted)
T1 construct: hIL-2Ra signal peptide (N); expressed in transfected cells
T1 sequence (P49685 2-360 limits assumed): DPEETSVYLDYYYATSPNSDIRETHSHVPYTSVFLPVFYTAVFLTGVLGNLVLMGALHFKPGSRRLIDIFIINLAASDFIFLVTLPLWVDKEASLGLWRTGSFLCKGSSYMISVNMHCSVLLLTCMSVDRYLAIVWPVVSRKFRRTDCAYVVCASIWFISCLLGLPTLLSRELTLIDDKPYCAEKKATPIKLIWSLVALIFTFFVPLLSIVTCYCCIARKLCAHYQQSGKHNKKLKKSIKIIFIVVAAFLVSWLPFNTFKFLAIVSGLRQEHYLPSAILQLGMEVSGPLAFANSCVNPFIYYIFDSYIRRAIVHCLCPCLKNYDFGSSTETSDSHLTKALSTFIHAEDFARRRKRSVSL
Method: (§1) 48 hr prior to parallel assaying, SNAP-tagged oGPCR cells were plated (10,000 cells/well) in fibronectin-coated 384-well Epic biosensor microplates (Corning) and poly-D-lysine coated white 384-well plates (for internalization assays). SNAP- GLP-1 receptor was plated alongside orphan receptor cells as an internal assay control for internalization assays. Receptor-expression was induced with 0.1 μg/ml doxycycline.
(§2) A TR-FRET real-time internalization assay was used to examine peptide-dependent changes in orphan receptor localization as described previously ([Foster and Bräuner-Osborne, 2018]). Surface-expressed SNAP-tagged receptors were labeled with a cell-impermeable luminescent terbium cryptate (100 nM SNAP Lumi4-Tb; Cisbio, France) for 1 hr at 37°C. Cells were washed to remove excess terbium and incubated with fluorescein-O-acetic acid (100 μM; Sigma Aldrich) for 5 min at 37°C. Peptides were added as for DMR assays, and internalization responses were recorded for 60 min at 37°C using an EnVision 2104 Multimode plate reader (PerkinElmer). 100 nM GLP-1 was used as a positive control for SNAP-GLP1R internalization. Real-time internalization responses were calculated based on TR-FRET (excitation 340 nm; emission 520 nm and 615 nm), and were expressed as the ratio between donor (terbium) and acceptor (fluorescein) emission. For peptide screening analysis (both DMR and internalization assays), we calculated the area under the curve from the real-time traces. As the magnitude of the responses was variable between orphan receptor targets, particularly for the SNAP-tag based internalization assay where the signal is dependent on receptor surface expression, the AUC values were normalized to their respective plate averages and expressed as fold change. Validation experiments for receptor internalization were performed as above. Internalization data was processed in MS-Excel and area under the curve was used to generate concentration-response curves using GraphPad Prism 7.0. Data represent mean ± standard error of the mean (SEM) from at least 3 biologically independent experiments.

GPR15 [2] = molecular target: T1, GPR15; assay: Dynamic mass redistribution (DMR), concentration-response; type: cell-based; settings: receptor GPR15, mean; for EC50: SEM and n (3), read-out: DMR assays pEC50 (converted); for DMR assays Emax (peak or AUC): SEM and n (2-3)
Method: as §1
(§3) DMR assays provide a single integrated readout of ligand-dependent cellular response, utilizing an optical biosensor in specialized microplates to detect wavelength shifts of reflected light as it passes through the biosensor and the lower portion of the cell (∼150-200 nm). As a signal pathway agnostic approach, DMR assays are well-suited to the study of GPCRs ([Fang et al., 2008], [Schröder et al., 2011]). The mass redistribution response (Δ picometer (pm)) likely reflects a number of intracellular events, including cytoskeletal rearrangement, protein trafficking and receptor internalization. Orphan receptor-expressing cells were gently washed twice with assay buffer (HBSS with 1 mM CaCl2, 1 mM MgCl2, 20 mM HEPES, 0.01% pluronic F-68, pH 7.4) containing 0.1% DMSO and cells were equilibrated for 90 min at 22°C in the EPIC Benchtop (BT) System (Corning) to establish a stable DMR signal. After 3-5 min baseline recordings, peptides (10 μM) were added in duplicate wells using an electronic 384-channel Viaflo pipette (Integra Biosciences, Switzerland) and DMR responses were measured for 60 min at 22°C. 100 nM norepinephrine was included as an internal assay control to assess the cellular DMR response via endogenously-expressed adrenoceptors in the TREx 293 cells. Real-time data were processed using the BT to column converter MS-Excel macro (Corning) and analyzed in GraphPad Prism 7.0. DMR recordings in peptide screening experiments were buffer and solvent corrected and the area under the curve (AUC) was quantified. For subsequent validation experiments, peptides were diluted in assay buffer containing 0.1% DMSO and DMR assays were performed as above. […] Data represent mean ± standard error of the mean (SEM) from at least 3 biologically independent experiments.

GPR15 [3] = molecular target: T1, GPR15; assay: cAMP inhibition (Gi/o), HTRF with forskolin; type: cell-based; settings: receptor GPR15, mean, SEM and n (4); for Emax: read-out: cAMP accumulation assays Emax (% FSK); for EC50: read-out: cAMP accumulation assays pEC50 (converted)
Method: Peptide-dependent second messenger responses were measured using commercially available HTRF-based IP1 and cAMP kits (Cisbio) as described previously ([Nørskov-Lauritsen et al., 2014]). Receptor expression was induced for 48 hr with 0.1 μg/ml doxycycline in 10 cm dishes. For IP1 measurements (to measure Gq/11), 2,500 cells/well were mixed with ligands in triplicate wells in low volume white 384-well plates at 37°C for 30 min. For cAMP assays, 2,500 cells/well were added in triplicate wells in white 384-well plates in the absence or presence of 3 μM forskolin (to measure Gs and Gi/o activation respectively). 100 μM IBMX was included to prevent cAMP degradation during 30 min stimulation on a plate shaker at room temperature. For both assays, HTRF was measured using an EnVision 2104 Multimode plate reader (PerkinElmer).

NPFF1 = molecular target: T2, NPFF1 (Homo sapiens, UniProt Q9GZQ6); assay: β-arrestin recruitment (Tango), known peptide receptors; type: cell-based; settings: mean, n = 3
T2 construct: host or cells: HTLA cells (HEK293-derived)
Excerpt: Supplement mmc7.xlsx, sheet "Peptide validation data" | column: Emax; pEC50

GPR37 = assay: Repeat of proposed literature pairing (mass redistribution and/or internalization); type: cell-based, human; settings: repeat of literature pairing; Figure S7A, Tables S5 and S7
Excerpt: as §3, §2

MAS1 = molecular target: T3, MAS1 (Homo sapiens, UniProt P04201); assay: β-arrestin recruitment (Tango), indicative pairing; type: cell-based; settings: mean, n = 3
T3 construct: host or cells: HTLA cells (HEK293-derived)
T3 sequence (P04201 1-325): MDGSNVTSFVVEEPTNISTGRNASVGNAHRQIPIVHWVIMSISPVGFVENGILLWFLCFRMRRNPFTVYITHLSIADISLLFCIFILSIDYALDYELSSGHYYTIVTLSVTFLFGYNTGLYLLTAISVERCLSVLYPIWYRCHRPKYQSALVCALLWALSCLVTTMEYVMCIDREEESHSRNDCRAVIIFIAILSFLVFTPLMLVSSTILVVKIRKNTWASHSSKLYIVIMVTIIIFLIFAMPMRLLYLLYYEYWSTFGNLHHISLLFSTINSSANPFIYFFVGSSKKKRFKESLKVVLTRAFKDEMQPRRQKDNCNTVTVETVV
Method: The peptide library was additionally screened against 120 GPCR targets in parallel, including all available orphan receptors and 27 known class A peptide receptors using the Tango assay platform ([Kroeze et al., 2015]). Briefly, HTLA cells (a HEK293 cell line stably expressing a tTA-dependent luciferase reporter and a β-arrestin2-TEV fusion gene) were plated 10,000 cells/well in poly-L-lysine–coated clear-bottom white 384-well plates in DMEM supplemented with 10% FBS, 100 U/ml penicillin and 100 μg/ml streptomycin, 2 μg/ml puromycin and 100 μg/ml hygromycin B. 24 hr later, cells were transfected with Tango GPCR constructs using the calcium phosphate method ([Jordan et al., 1996]). The next day, culture medium was changed to DMEM + 1% dFBS and 10 μM peptides were added for overnight stimulation. Bright-Glo solution (Promega) was incubated for 15–20 min at room temperature, and luminescence was counted using a Trilux luminescence counter (Wallac).
For subsequent peptide validation experiments using Tango assays, HTLA cells were transiently transfected in 10 cm dishes with the receptor of interest using polyethylenimine (PEI) ([Longo et al., 2013]). After 24 hr, 25,000 cells/well were plated in clear bottom, white-walled 384-well plates. Assays were performed as described above, with luminescence measured using an EnSpire 2300 Multimode plate reader (PerkinElmer). Luminescence counts were exported into Excel and were analyzed using GraphPad Prism 7.

human GPCRs = molecular target: human GPCRs; design: method as in Guide to Pharmacology database; settings: max reported value, ref Guide to Pharmacology database, cited from earlier work
Excerpt: Supplement mmc1.xlsx, sheet "HumanGPCRLigands" | column: pKi_value; pKd_value; pEC50_value; pIC50_value

GPR139 = molecular target: T4, GPR139 (Homo sapiens, UniProt Q6DWJ6); assay: Repeat of proposed literature pairing (mass redistribution and/or internalization); type: cell-based
T4 construct: hIL-2Ra signal peptide (N); expressed in transfected cells
T4 sequence (Q6DWJ6 2-353 limits assumed): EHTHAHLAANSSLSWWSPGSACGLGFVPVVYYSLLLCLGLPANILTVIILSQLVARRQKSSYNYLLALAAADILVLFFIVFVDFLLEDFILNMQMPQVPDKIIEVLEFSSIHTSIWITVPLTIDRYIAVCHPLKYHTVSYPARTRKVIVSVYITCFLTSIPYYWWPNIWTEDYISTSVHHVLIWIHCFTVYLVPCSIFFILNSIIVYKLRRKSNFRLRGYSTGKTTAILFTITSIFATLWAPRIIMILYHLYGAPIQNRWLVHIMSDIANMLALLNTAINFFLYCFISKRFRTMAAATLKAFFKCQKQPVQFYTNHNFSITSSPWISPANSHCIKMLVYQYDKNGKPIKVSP
Excerpt: as §3
as §2, with “As the magnitude of the responses was variable between orphan receptor targets, particularly for the SNAP-tag based internalization assay where the signal is dependent on receptor surface expression, the AUC values were normalized to their respective plate averages and expressed as fold change.” left out

T2 sequence (Q9GZQ6 whole entry): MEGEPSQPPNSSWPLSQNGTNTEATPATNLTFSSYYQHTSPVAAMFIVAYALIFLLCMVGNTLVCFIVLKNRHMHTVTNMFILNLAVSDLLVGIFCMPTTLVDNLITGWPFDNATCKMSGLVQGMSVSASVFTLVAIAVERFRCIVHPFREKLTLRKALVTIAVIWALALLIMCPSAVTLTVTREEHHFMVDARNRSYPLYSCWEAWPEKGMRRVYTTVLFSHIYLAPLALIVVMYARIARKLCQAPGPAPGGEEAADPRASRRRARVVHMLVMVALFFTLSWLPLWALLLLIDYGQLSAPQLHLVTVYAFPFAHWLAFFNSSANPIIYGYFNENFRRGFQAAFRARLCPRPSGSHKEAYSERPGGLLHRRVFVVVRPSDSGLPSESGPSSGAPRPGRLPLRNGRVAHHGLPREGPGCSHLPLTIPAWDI

Substance: TRLCCHRVPSPNSTNLKGHHVRLCKPCKLEPEPRLWVVPGALPQV (disulfide 4-27, 5-24) [64.3 (Phoenix)]
- EC50 (GPR15 [1]): 447 nM
- EC50 (GPR15 [2]): 13.2 nM
- Emax (GPR15 [3]): 40.8%
- EC50 (GPR15 [3]): 25.7 nM

Substance: KRRPAKAWS [Peptide 64.1]
- Internalization assays Emax (AUC) (GPR15 [1]): 3.1
- DMR assays Emax (peak or AUC) (GPR15 [2]): 107
- cAMP accumulation assays Emax (% FSK) (GPR15 [3]): 98.3 % FSK

Substance: ARANMEAGTMSHFPSLPQRF [Peptide 135]
- Emax, Tango (fold over basal) (NPFF1): 22.0 fold over basal
- pEC50, Tango (fold over basal) (NPFF1): 6.22

Substance: TRLCCHRVPSPNSTNLKGHHVRLCKPCKLEPE (also: bicyclic or more (positions not given here)) [Peptide 64.2]
- Internalization assays Emax (AUC) (GPR15 [1]): 4.3
- DMR assays Emax (peak or AUC) (GPR15 [2]): 81
- cAMP accumulation assays Emax (% FSK) (GPR15 [3]): 92.5 % FSK

Substance: KRRPAKAWSGRRTRLCCHRVPSPNSTNLKGHHVRLCKPCKLEPEPRLWVVPGALPQV (disulfide 16-39, 17-36) [64.4 (Phoenix)]
- EC50 (GPR15 [1]): 89.1 nM
- EC50 (GPR15 [2]): 324 nM
- Emax (GPR15 [3]): 41%
- EC50 (GPR15 [3]): 1.26 nM

Substance: head activator
- receptor-dependent activation by proposed ligand, GPR37 (GPR37): no activity

Substance: LWVVPGALPQV [64 original]
- Internalization assays Emax (AUC) (GPR15 [1]): 45.8
- DMR assays Emax (peak or AUC) (GPR15 [2]): 197
- cAMP accumulation assays Emax (% FSK) (GPR15 [3]): 29.2 % FSK

Substance: NAWGPWSKEQLSPQAREFWSLAAPQRF [Peptide 166]
- Emax, Tango (fold over basal) (MAS1): 1.2 fold over basal
- pEC50, Tango (fold over basal) (MAS1): 7.14
- Emax, Tango (fold over basal) (NPFF1): 26.7 fold over basal
- pEC50, Tango (fold over basal) (NPFF1): 4.75

Substance: ACTH (SYSMEHFRWGKPVGKKRRPVKVYPNGAEDESAEAFPLEF; Corticotropin; UniProt P01189 138-176, looked up) [melanocortin receptor ligand, reference compound]
- pKi_value (human GPCRs; receptor mc3r_human (MC3R, P41968)): 7.1
- pKi_value (human GPCRs; receptor mc4r_human (MC4R, P32245)): 6.2
- pKi_value (human GPCRs; receptor mc5r_human (MC5R, P33032)): 5
- pKi_value (human GPCRs; receptor mshr_human (MC1R, Q01726)): 8.6
- Peptide pairing for orphan receptor GPR139 (confirmed/unconfirmed) (GPR139; repeat of literature pairing): Confirmed peptide pairings for orphans
- receptor-dependent activation by proposed ligand, GPR139 (GPR139; repeat of literature pairing across multiple assays, Figure S7A, Tables S5 and S7): selective receptor-dependent activation

Substance: RPYLTQGNEIFPD [Peptide 90]
- Emax, Tango (fold over basal) (NPFF1): 9.6 fold over basal
- pEC50, Tango (fold over basal) (NPFF1): 4.27
